Earlier results, collected in patent publication US8222245B2, “Oxadiazole derivatives active on sphingosine-1-phosphate (S1P)” (Glaxo Group Limited, priority 2007, dated 2012).

What was measured:
circulating lymphocytes = settings: animals and man
[1] = clinical studies, first 24 hours of treatment

In the case of `CCCCCCCCc1ccc(CCC(N)(CO)CO)cc1` [FTY720], the “effect on circulating lymphocytes” value (circulating lymphocytes) is listed as “reduce circulating lymphocytes in animals and man” and the bradycardia on treatment [1] is listed as “bradycardia in the first 24 hours of treatment”.
